Data as given in patent US5340589A, “Low solubility drug-coated bead compositions” (Sterling Winthrop Inc., priority 1993, dated 1994).

What was measured:
[1] = dog, in vivo, po
Procedure: Blood samples were taken at 0.25(tablet only), 0.5, 1, 2, 4, 6, 8, 10, 12 and 24 hours postmedication. The plasma concentration of (5α,17α)-1'-(methylsulfonyl)-1'-H-pregn-20-yno[3,2-c]pyrazol-17-ol was measured from each sample. The data were analyzed to determine the mean maximum concentration of (5α,17α)-1'-(methylsulfonyl)-1'-H-pregn-20-yno[3,2-c]pyrazol-17-ol reached (mean Cmax) and the mean area under the (5α,17α)-1'-(methylsulfonyl)-1'H-pregn-20-yno[3,2-c]pyrazol-17-ol concentration-time curve for the twenty-four hour period (mean AUC0-24).

[2] = in vivo, po; cited from earlier work

Mean Cmax [1] | Mean AUC0-24 ([1]; 24 h) | Compound | human bioavailability compared with conventional starch-lactose-talc-magnesium stearate dry powder capsule formulations [2]
0.23 (0.11) μg./ml. | 1.70 (1.64) μg.-hr./ml. | (5α,17α)-1'-(methylsulfonyl)-1'H-pregn-20-yno[3,2-c]pyrazol-17-ol [Comparative Example] | 
 |  | C#C[C@]1(O)CC[C@H]2[C@@H]3CCC4=Cc5oncc5C[C@]4(C)[C@H]3CC[C@@]21C [Compound A, 17a-pregna-2,4-diene-20-yno[2,3-d]isoxazol-17-ol] | Improved human bioavailability
